Source: article PMC6277767, “Broad and Region-Specific Impacts of the Synthetic Cannabinoid CP 55,940 in Adolescent and Adult Female Mouse Brains” (Frontiers in Molecular Neuroscience, 2018)

Tested on: CD1 female mouse brain lipidome
Experiment: Brain-region lipid levels (HPLC/MS/MS lipidomics) 2 h after single i.p. 3 mg/kg CP 55,940 vs vehicle
Type: in vivo
Set-up: N-arachidonoyl phenylalanine level, Mean / N-stearoyl tryptophan level, Mean / N-stearoyl proline level, Mean / N-stearoyl leucine level, Mean / N-stearoyl phenylalanine level, Mean / N-stearoyl serine level, Mean / N-stearoyl methionine level, Mean: unit: moles per gram
Settings: striatum
Description: The Bloomington Institutional Animal Care and Use Committee of Indiana University reviewed and approved the animal procedures. Female mice from the CD1 strain were utilized to match our study examining THC’s effects on the brain lipidome ([Leishman et al., 2018]). Mice were given a single i.p. injection of either 3 mg/kg CP or 1:1:18 cremophor:ethanol:saline vehicle (please refer to the section “3 mg/kg CP Is Relevant for Synthetic Cannabinoid Abuse and Has Stronger Effects on the Female Mouse Brain Lipidome During Adolescence” for a justification of dose and use of female mice). Three different age groups were given injections: PND 35 and PND 50 adolescents, and adult mice (PND 113). At least eight mice in each age group received CP and at least eight received vehicle. Matching the THC study time course ([Leishman et al., 2018]), mice were sacrificed via rapid decapitation 2 h after injection. Brains were immediately removed and flash-frozen in liquid nitrogen, and then stored at -80°C until dissections were performed. Brains were dissected on an ice-cold dissection plate into the following regions: STR, HIPP, CER, THAL, CTX, HYP, MID, and STEM. These abbreviations for these brain areas will be used exclusively when discussing the results generated by these specific dissections. Each dissected area was immediately placed in liquid nitrogen and then stored at -80°C until used for lipid extraction.
Tissue extracts were performed as previously described ([Bradshaw et al., 2006]; [Stuart et al., 2013]; [Raboune et al., 2014]; [Leishman et al., 2016a],[b], [2017], [2018]). First, samples were shock frozen in liquid nitrogen, weighed, and transferred to a centrifuge tube. The mass of the largest sample was multiplied by 50 to determine how many milliliters of HPLC-grade methanol (Fisher, Fair Lawn, NJ, United States) to add. Then, samples were spiked with 500 pmol deuterium-labeled NAGly (d8NAGly; Cayman Chemical, Ann Arbor, MI, United States). Samples were placed on ice in darkness for 2 h then individually homogenized and centrifuged at 19,000 × g for 20 min at 20°C. Supernatants were diluted with HPLC water (purified in house) to make a solution of 75% water, 25% supernatant. Lipids were partially purified on C18 solid phase extraction columns (Agilent, Palo Alto, CA, United States). A series of four elutions with 1.5 mL of 60%, 75%, 85%, and 100% methanol were collected ([Stuart et al., 2013]; [Leishman et al., 2016a],[b], [2018]).
As previously described ([Bradshaw et al., 2006]; [Tan et al., 2006]; [Smoum et al., 2010]; [Stuart et al., 2013]; [Tortoriello et al., 2013]; [Raboune et al., 2014]; [Leishman et al., 2016a],[b], [2017], [2018]), samples were analyzed using an Applied Biosystems API 3000 triple quadrupole mass spectrometer with electrospray ionization (Foster City, CA, United States). Using an Agilent XDB-C18 reversed phase analytical column and optimized mobile phase gradients, 20 μL from each elution were chromatographed. Two Shimadzu 10ADvp pumps (Columbia, MD, United States) provided the pressure for gradient elution. Mobile phase A: 20% methanol, 80% water (v/v) and 1 mM ammonium acetate (Sigma, St. Louis, MO, United States). Mobile phase B: 100% methanol, 1 mM ammonium acetate. Every method run began with 0% mobile phase B, reached 100% mobile phase B flowing at 0.2 mL/min, and gradually returned to 0% mobile phase B.
This screening library will be referred to as the lipidome when discussing data from this study. HPLC/MS/MS data were analyzed using Analyst software (Applied Biosystems) ([Bradshaw et al., 2006]; [Tan et al., 2006]; [Stuart et al., 2013]; [Tortoriello et al., 2013]; [Raboune et al., 2014]; [Leishman et al., 2016a],[b], [2017], [2018]). Chromatograms (Supplementary Figure 3) were generated by determining the retention time of analytes from the analytical column with a [M-1] or [M+1] parent peak and a fragmentation peak corresponding to the programmed values. […]

[1] = PND 50 female mice, 3mg/kg CP 55,940, mean

Which results are given for `CCCCCCC(C)(C)c1ccc([C@@H]2C[C@H](O)CC[C@H]2CCCO)c(O)c1` [CP 55,940]?
N-palmitoyl valine level [1]: 1.79E-13; N-stearoyl GABA level [1]: 3.86E-12; N-stearoyl alanine level [1]: 6.45E-13; N-stearoyl ethanolamine level [1]: 2.79E-11; N-stearoyl glycine level [1]: 4.91E-13; N-stearoyl leucine level [1]: 1.1E-12; N-stearoyl methionine level [1]: 8.01E-13; N-stearoyl phenylalanine level [1]: 1.27E-12; N-stearoyl proline level [1]: BDL; N-stearoyl serine level [1]: 5.13E-11; N-stearoyl tryptophan level [1]: BDL; N-stearoyl tyrosine level [1]: 9.9E-14; Oleic acid level [1]: 2.17E-10; PGE2 level [1]: 7.65E-11; PGF2α level [1]: 9.33E-11; THC level [1]: BDL; 2-arachidonoyl-sn-glycerol level, Mean (adult, 3 mg/kg CP 55,940): 1.6E-09; 2-linoleoyl-sn-glycerol level, Mean (adult, 3 mg/kg CP 55,940): 1.72E-10; 2-oleoyl-sn-glycerol level, Mean (adult, 3 mg/kg CP 55,940): 1.58E-09; 2-palmitoyl-sn-glycerol level, Mean (adult, 3 mg/kg CP 55,940): 1.51E-10; 6-ketoPGF1α level, Mean (adult, 3 mg/kg CP 55,940): PISSR; 11-OH-THC level, Mean (adult, 3 mg/kg CP 55,940): BDL; 11-nor-9-carboxyTHC level, Mean (adult, 3 mg/kg CP 55,940): BDL; Arachidonic acid level, Mean (adult, 3 mg/kg CP 55,940): 1.93E-09; Cannabidiol level, Mean (adult, 3 mg/kg CP 55,940): BDL; Linoleic acid level, Mean (adult, 3 mg/kg CP 55,940): 7.69E-10; N- stearoyl valine level, Mean (adult, 3 mg/kg CP 55,940): PISSR; N-arachidonoyl GABA level, Mean (adult, 3 mg/kg CP 55,940): 2.43E-11; N-arachidonoyl alanine level, Mean (adult, 3 mg/kg CP 55,940): 2.03E-12; N-arachidonoyl dopamine level, Mean (adult, 3 mg/kg CP 55,940): BDL; N-arachidonoyl ethanolamine level, Mean (adult, 3 mg/kg CP 55,940): 2.19E-11; N-arachidonoyl glycine level, Mean (adult, 3 mg/kg CP 55,940): 6.38E-13; N-arachidonoyl methionine level, Mean (adult, 3 mg/kg CP 55,940): BDL; N-arachidonoyl phenylalanine level, Mean (adult, 3 mg/kg CP 55,940): 9.64E-14; N-arachidonoyl proline level, Mean (adult, 3 mg/kg CP 55,940): BDL; N-arachidonoyl serine level, Mean (adult, 3 mg/kg CP 55,940): PISSR; N-arachidonoyl taurine level, Mean (adult, 3 mg/kg CP 55,940): 9.74E-11; N-arachidonoyl tryptophan level, Mean (adult, 3 mg/kg CP 55,940): BDL; N-arachidonoyl tyrosine level, Mean (adult, 3 mg/kg CP 55,940): PISSR; N-docosahexaenoyl GABA level, Mean (adult, 3 mg/kg CP 55,940): PISSR; N-docosahexaenoyl alanine level, Mean (adult, 3 mg/kg CP 55,940): BDL; N-docosahexaenoyl ethanolamine level, Mean (adult, 3 mg/kg CP 55,940): 2.36E-11; N-docosahexaenoyl glycine level, Mean (adult, 3 mg/kg CP 55,940): PISSR; N-docosahexaenoyl leucine level, Mean (adult, 3 mg/kg CP 55,940): PISSR; N-docosahexaenoyl methionine level, Mean (adult, 3 mg/kg CP 55,940): BDL; N-docosahexaenoyl phenylalanine level, Mean (adult, 3 mg/kg CP 55,940): PISSR; N-docosahexaenoyl proline level, Mean (adult, 3 mg/kg CP 55,940): BDL; N-docosahexaenoyl serine level, Mean (adult, 3 mg/kg CP 55,940): PISSR; N-docosahexaenoyl tryptophan level, Mean (adult, 3 mg/kg CP 55,940): BDL; N-docosahexaenoyl tyrosine level, Mean (adult, 3 mg/kg CP 55,940): PISSR; N-docosahexaenoyl valine level, Mean (adult, 3 mg/kg CP 55,940): BDL; N-linoleoyl GABA level, Mean (adult, 3 mg/kg CP 55,940): PISSR; N-linoleoyl alanine level, Mean (adult, 3 mg/kg CP 55,940): PISSR; N-linoleoyl ethanolamine level, Mean (adult, 3 mg/kg CP 55,940): 3.83E-11; N-linoleoyl glycine level, Mean (adult, 3 mg/kg CP 55,940): PISSR; N-linoleoyl leucine level, Mean (adult, 3 mg/kg CP 55,940): PISSR; N-linoleoyl methionine level, Mean (adult, 3 mg/kg CP 55,940): BDL; N-linoleoyl phenylalanine level, Mean (adult, 3 mg/kg CP 55,940): PISSR; N-linoleoyl proline level, Mean (adult, 3 mg/kg CP 55,940): BDL; N-linoleoyl serine level, Mean (adult, 3 mg/kg CP 55,940): 1.09E-10; N-linoleoyl tryptophan level, Mean (adult, 3 mg/kg CP 55,940): BDL; N-linoleoyl tyrosine level, Mean (adult, 3 mg/kg CP 55,940): BDL; N-linoleoyl valine level, Mean (adult, 3 mg/kg CP 55,940): PISSR; N-nervonoyl valine level, Mean (adult, 3 mg/kg CP 55,940): BDL; N-oleoyl GABA level, Mean (adult, 3 mg/kg CP 55,940): 1.7E-11; N-oleoyl alanine level, Mean (adult, 3 mg/kg CP 55,940): 3.96E-12; N-oleoyl dopamine level, Mean (adult, 3 mg/kg CP 55,940): BDL; N-oleoyl ethanolamine level, Mean (adult, 3 mg/kg CP 55,940): 1.57E-10; N-oleoyl glycine level, Mean (adult, 3 mg/kg CP 55,940): 5.26E-13; N-oleoyl leucine level, Mean (adult, 3 mg/kg CP 55,940): 1.99E-12; N-oleoyl methionine level, Mean (adult, 3 mg/kg CP 55,940): PISSR; N-oleoyl phenylalanine level, Mean (adult, 3 mg/kg CP 55,940): 4.84E-13; N-oleoyl proline level, Mean (adult, 3 mg/kg CP 55,940): BDL; N-oleoyl serine level, Mean (adult, 3 mg/kg CP 55,940): 5.05E-10; N-oleoyl tryptophan level, Mean (adult, 3 mg/kg CP 55,940): BDL; N-oleoyl tyrosine level, Mean (adult, 3 mg/kg CP 55,940): PISSR; N-oleoyl valine level, Mean (adult, 3 mg/kg CP 55,940): PISSR; N-palmitoyl GABA level, Mean (adult, 3 mg/kg CP 55,940): 2.94E-11; N-palmitoyl alanine level, Mean (adult, 3 mg/kg CP 55,940): 3.83E-12; N-palmitoyl ethanolamine level, Mean (adult, 3 mg/kg CP 55,940): 7.87E-11; N-palmitoyl glycine level, Mean (adult, 3 mg/kg CP 55,940): 2.5E-12; N-palmitoyl leucine level, Mean (adult, 3 mg/kg CP 55,940): 3E-12; N-palmitoyl methionine level, Mean (adult, 3 mg/kg CP 55,940): PISSR; N-palmitoyl phenylalanine level, Mean (adult, 3 mg/kg CP 55,940): 3.31E-13; N-palmitoyl proline level, Mean (adult, 3 mg/kg CP 55,940): PISSR; N-palmitoyl serine level, Mean (adult, 3 mg/kg CP 55,940): 4.99E-11; N-palmitoyl tryptophan level, Mean (adult, 3 mg/kg CP 55,940): BDL; N-palmitoyl tyrosine level, Mean (adult, 3 mg/kg CP 55,940): 2.47E-12; N-palmitoyl valine level, Mean (adult, 3 mg/kg CP 55,940): PISSR; N-stearoyl GABA level, Mean (adult, 3 mg/kg CP 55,940): 2.26E-11; N-stearoyl alanine level, Mean (adult, 3 mg/kg CP 55,940): 4.15E-12; N-stearoyl ethanolamine level, Mean (adult, 3 mg/kg CP 55,940): 3.49E-11; N-stearoyl glycine level, Mean (adult, 3 mg/kg CP 55,940): 3.37E-12; N-stearoyl leucine level, Mean (adult, 3 mg/kg CP 55,940): 3.52E-12; N-stearoyl phenylalanine level, Mean (adult, 3 mg/kg CP 55,940): 4.25E-13; N-stearoyl proline level, Mean (adult, 3 mg/kg CP 55,940): BDL; N-stearoyl serine level, Mean (adult, 3 mg/kg CP 55,940): PISSR; N-stearoyl tryptophan level, Mean (adult, 3 mg/kg CP 55,940): BDL; Oleic acid level, Mean (adult, 3 mg/kg CP 55,940): 1.22E-09; PGE2 level, Mean (adult, 3 mg/kg CP 55,940): 2.64E-10; PhosphoLEA level, Mean (adult, 3 mg/kg CP 55,940): 2.11E-11; THC level, Mean (adult, 3 mg/kg CP 55,940): BDL
